“Also recorded” adds a separate entry of the source.
Columns and labels:
OE19 = test: Electron microscopy; format: cell-based, human; settings: 5-FU (25 μM), 48 hours
Method: (§1) Cells were seeded on semi-porous membranes and incubated in 5-Fluoruracil (5-FU) for 48 hours. Cells were then fixed in a […] phosphate buffer (pH 7.4), containing 2.0% glutaraldehyde, at room temperature (RT) for 40 minutes. Cells were post-fixed in Osmium tetroxide (OsO4) at RT for 60 minutes, dehydrated in ascending grades of ethanol solutions (50%, 70%, 95%, 100% and 100% dry), prior to embedding in Araldite resin. Samples were subjected to a graded infiltration process with araldite (epoxy resin) before being set and sectioned. Representative areas were chosen for ultra-thin sectioning and samples were examined by electron microscopy.

OE21 = test: Electron microscopy; format: cell-based, human; settings: 5-FU (25 μM), 48 hours
Method: as §1

LLC-Luc cells = test: FITC conjugated LC3 staining of LLC-Luc cells in vitro; format: cell-based; settings: 5-FU in vitro, 24 and 48 hours
Description: FITC conjugated LC3 (a known marker of autophagy), forms a green punctate staining pattern in the cytoplasm when it accumulates in forming autophagosomes.

[1] = test system: active caspase-3 in KYSE450 cells; test: Active caspase-3 by flow cytometry; format: cell-based, human; settings: 48 hours after treatment, range of concentrations
Method: (§2) To examine control and 5-Fluorouracil treated cells for evidence of caspase activity cells were processed by trypsinization, 48 hours after treatment. […] This was detected with an anti rabbit FITC conjugated secondary antibody, and samples were analyzed by FACScan at 530 nm (FL-1). Percentages indicate the proportion of cells with active caspase-3, detected as an increase in the number of FITC (FL-1) labelled cells.

[2] = test system: active caspase-3 in OE21 cells; test: Active caspase-3 by flow cytometry; format: cell-based, human
Method: as §2

[3] = test system: active caspase-3 in OE19 cells; test: Active caspase-3 by flow cytometry; format: cell-based, human; settings: 48 hours after treatment
Method: as §2

For `O=c1[nH]cc(F)c(=O)[nH]1` [5-FU, 5-fluorouracil], the “ultra structural features (electron microscopy)” value (OE19) was “numerous cytoplasmic vacuoles are evident”, the “ultra structural features (electron microscopy)” value (OE21) was “morphological changes consistent with classical apoptotic cell death” and the “autophagy (FITC conjugated LC3 punctate staining)” value (LLC-Luc cells) was “the extent of autophagy is greatly enhanced”. The “active caspase-3” value [1] was “do not show caspase-3 activity; also recorded: fail to show any active caspase-3”, the “proportion of cells with active caspase-3” value ([2]; 5-FU (25 μM/50 μM), 48 hours) was 44% and the “active caspase-3” value ([2]; 48 hours after treatment) was “displayed active caspase-3”. For the same molecule, the “active caspase-3” value [3] was “do not show caspase-3 activity”.
